{
  "source": "ChEMBL document CHEMBL1201862",
  "about": "“PubChem BioAssay data set” (2004)",
  "key": {"[1]": {"assay": "activation of miR-122 Renilla sensor silencing – cell-based, Huh7 psiCHECK-miR122, Renilla luciferase, cherry-picked, dose response (AID 651956);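 further: huh7 hepatoma cells stably carrying a psiCHECK-2 miR-122 sensor plasmid; renilla luciferase signal reporting endogenous miR-122 activity after 48 h compound exposure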", "assay_type": "functional"}, "[2]": {"assay": "Luminescence Cell-Based Dose Confirmation HTS to Identify Activators of 5'UTR Stem-Loop Driven Alpha-Synuclein mRNA Translation in H4 Neuroglioblastoma Cells. [Related pubchem assays: 1829 (Project Summary), 1814 (Primary HTS)]", "assay_type": "functional"}, "[3]": {"molecular_target": "SWI/SNF-related matrix-associated actin-dependent regulator of chromatin subfamily A member 2 (Homo sapiens, UniProt P51531)", "assay": "Luminescence-based cell-based high throughput dose response assay to identify activators of the function of SWI/SNF related, matrix associated, actin dependent regulator of chromatin, subfamily a, member 2 (SMARCA2, BRM).", "assay_type": "functional"}, "[4]": {"assay": "Counterscreen for activators of the function of SWI/SNF related, matrix associated, actin dependent regulator of chromatin, subfamily a, member 2 (SMARCA2, BRM): Luminescence-based cell-based high throughput dose response assay to identify non-selective compounds using the VP16 reporter assay.", "assay_type": "functional"}, "[5]": {"assay": "Luminescence Cell-Based Dose Response HTS to Identify Activators of Luciferase Translation or Activity in H4 […] Cells. [Related pubchem assays: 1829 (Project Summary), 1814 (Primary HTS)]", "assay_type": "functional"}, "[6]": {"system": "H4", "assay": "Luminescence Cell-Based Dose Response HTS to Identify Activators of 5'UTR Stem-Loop Driven Prion Protein mRNA Translation in H4 Neuroglioblastoma Cells. [Related pubchem assays: 1829 (Project Summary), 1814 (Primary HTS)]", "assay_type": "functional", "conditions": "Homo sapiens"}, "[7]": {"assay": "viability of uninfected HEp-2 cells – cell-based, HTS, cytotoxicity control for RSV inhibitor project, dose response (AID 2410)", "assay_type": "functional", "conditions": "human respiratory syncytial virus"}, "[8]": {"molecular_target": "T1, Nuclear receptor subfamily 0 group B member 1 (Homo sapiens, UniProt P51843)", "T1 sequence (P51843 whole entry)": "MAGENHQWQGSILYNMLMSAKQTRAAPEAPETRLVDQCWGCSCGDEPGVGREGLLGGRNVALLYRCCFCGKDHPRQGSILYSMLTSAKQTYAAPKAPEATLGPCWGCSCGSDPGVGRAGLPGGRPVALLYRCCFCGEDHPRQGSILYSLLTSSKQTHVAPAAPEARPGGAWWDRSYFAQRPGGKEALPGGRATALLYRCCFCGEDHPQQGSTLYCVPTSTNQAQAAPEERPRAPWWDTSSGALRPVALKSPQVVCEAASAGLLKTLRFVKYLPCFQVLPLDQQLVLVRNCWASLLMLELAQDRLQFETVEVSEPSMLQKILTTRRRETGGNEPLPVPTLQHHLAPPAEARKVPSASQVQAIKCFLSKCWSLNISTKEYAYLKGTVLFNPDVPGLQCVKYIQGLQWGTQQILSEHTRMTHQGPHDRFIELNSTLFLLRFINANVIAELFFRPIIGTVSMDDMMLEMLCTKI", "assay_type": "functional, cell-based"}, "[9]": {"assay": "cells", "assay_type": "functional, cell-based"}, "[10]": {"assay": "cells"}, "[11]": {"molecular_target": "Major prion protein (Homo sapiens, UniProt P04156)", "assay_type": "functional, cell-based"}, "[12]": {"assay": "viability loss in CEM21 cells – cell-based, CellTiter-Glo luminescence, cherry-picked, cytotoxicity control for viral fusion inhibitor project, dose response (AID 652042);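 further: potency for signal decrease meaning cytotoxicity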", "assay_type": "functional"}, "[13]": {"molecular_target": "T2, Rac GTPase-activating protein 1 (Homo sapiens, UniProt Q9H0H5)", "T2 sequence (Q9H0H5 whole entry)": "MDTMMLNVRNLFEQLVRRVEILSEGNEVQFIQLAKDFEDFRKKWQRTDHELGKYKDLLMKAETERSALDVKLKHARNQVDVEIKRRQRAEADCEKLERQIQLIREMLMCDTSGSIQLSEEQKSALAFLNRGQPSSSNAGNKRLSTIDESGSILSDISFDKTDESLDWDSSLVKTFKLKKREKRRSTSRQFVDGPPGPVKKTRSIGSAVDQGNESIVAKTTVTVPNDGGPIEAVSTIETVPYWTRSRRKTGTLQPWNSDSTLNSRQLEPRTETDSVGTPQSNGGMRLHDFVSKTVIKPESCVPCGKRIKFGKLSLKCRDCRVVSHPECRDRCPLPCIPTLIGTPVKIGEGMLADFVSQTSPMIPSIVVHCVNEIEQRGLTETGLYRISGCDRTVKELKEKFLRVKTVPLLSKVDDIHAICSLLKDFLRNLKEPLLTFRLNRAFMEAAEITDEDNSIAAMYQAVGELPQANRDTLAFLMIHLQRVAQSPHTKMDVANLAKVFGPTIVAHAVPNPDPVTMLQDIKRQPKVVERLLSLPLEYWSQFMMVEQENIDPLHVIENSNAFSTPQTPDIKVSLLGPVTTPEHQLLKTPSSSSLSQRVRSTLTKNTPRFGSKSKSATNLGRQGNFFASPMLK", "assay": "blockers of MgcRacGAP-driven Rac1 GTP hydrolysis – biochemical, ADP Hunter fluorescence, primary and confirmatory, confirmation (AID 624330)", "assay_type": "functional"}, "[14]": {"assay": "viability loss in HeLa cells – cytotoxicity control for MgcRacGAP inhibitor project, dose response (AID 624300)", "assay_type": "functional"}, "[15]": {"assay": "HGIII-sPLA2 enzyme inhibition potency – biochemical, QFRET, IC50, dose response (AID 743457);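 further: green fluorescence rise as the enzyme cleaves BODIPY PC-A2 in liposomes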"}, "[16]": {"molecular_target": "T3, Trace amine-associated receptor 1 (Homo sapiens, UniProt Q96RJ0)", "T3 sequence (Q96RJ0 whole entry)": "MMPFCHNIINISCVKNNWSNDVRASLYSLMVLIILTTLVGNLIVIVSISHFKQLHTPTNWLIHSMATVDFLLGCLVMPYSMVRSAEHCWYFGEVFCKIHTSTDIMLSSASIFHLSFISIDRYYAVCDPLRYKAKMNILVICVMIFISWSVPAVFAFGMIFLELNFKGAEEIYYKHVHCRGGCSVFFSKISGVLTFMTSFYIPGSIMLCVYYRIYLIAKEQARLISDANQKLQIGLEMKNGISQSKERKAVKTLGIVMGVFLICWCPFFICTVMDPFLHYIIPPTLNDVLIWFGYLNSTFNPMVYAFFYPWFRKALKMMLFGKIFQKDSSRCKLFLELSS", "assay": "Fluorescence-based cell-based high throughput dose response assay to identify agonists of the human trace amine associated receptor 1 (TAAR1).", "assay_type": "functional"}, "[17]": {"assay": "cells", "assay_type": "functional, cell-based", "remark": "listed apart in the source"}, "[18]": {"assay": "cells", "assay_type": "functional, cell-based", "remark": "listed apart in the source"}, "[19]": {"molecular_target": "T3, Trace amine-associated receptor 1", "assay": "Counterscreen for agonists of the human trace amine associated receptor 1 (hTAAR1): Fluorescence-based cell-based high throughput dose response assay to identify hTAAR1 agonist that also desensitize TAAR1 receptor response.", "assay_type": "functional"}},
  "note": "Active and inactive are the calls of the source.",
  "data": [
    {"smiles": "CCOc1ccc(NC(=S)N(CCCN2CCCC2)Cc2cccn2Cc2ccc(Cl)cc2)cc1", "values": [
      {"measurement": "AC50", "setting": "[1]", "result": "46.1 µM (active)"}
    ]},
    {"smiles": "O=C(CNS(=O)(=O)c1ccccc1)OCC(=O)c1ccc(OC(=O)c2ccccc2)cc1", "values": [
      {"measurement": "EC50", "setting": "[2]", "result": "> 120 µM (not active)"},
      {"measurement": "EC50", "setting": "[3]", "result": "> 91.2 µM (inactive)"},
      {"measurement": "EC50", "setting": "[4]", "result": "> 91.2 µM (inactive)"},
      {"measurement": "EC50", "setting": "[5]", "result": "11.7 µM (active)"},
      {"measurement": "EC50", "setting": "[6]", "result": "> 120 µM (not active)"}
    ]},
    {"smiles": "Cn1ncc(Cl)c1C(=O)Nc1ccc2c(c1)CCC2", "values": [
      {"measurement": "CC50", "setting": "[7]", "result": "41.5 µM (active)"},
      {"measurement": "IC50", "setting": "[8]", "result": "> 67.5 µM (inactive)"},
      {"measurement": "IC50", "setting": "[9]", "result": "> 67.5 µM (inactive)"}
    ]},
    {"smiles": "CCc1nc(SCC(=O)Nc2ccc(N(C)C)cc2)c2ccccc2n1", "values": [
      {"measurement": "IC50", "setting": "[10]", "result": "> 138 µM (inactive)"},
      {"measurement": "IC50", "setting": "[11]", "result": "4.47 µM (active)"}
    ]},
    {"smiles": "COc1ccc(S(=O)(=O)N2CCCCC2)cc1NC(=O)CN(Cc1ccco1)Cc1ccco1", "values": [
      {"measurement": "AC50", "setting": "[12]", "result": "68.8 µM (active)"}
    ]},
    {"smiles": "CCC(CC)NCc1ccc2c(c1)c1ccccc1n2CC", "values": [
      {"measurement": "IC50", "setting": "[13]", "result": "133 µM (active)"},
      {"measurement": "CC50", "setting": "[14]", "result": "100 µM (active)"}
    ]},
    {"smiles": "O=C(NN=C(S)Nc1cccc(Cl)c1)c1ccccc1OC(F)F", "values": [
      {"measurement": "IC50", "setting": "[15]", "result": "> 122 µM (inactive)"}
    ]},
    {"smiles": "Cn1cccc1CNCCc1ccccc1F", "values": [
      {"measurement": "EC50", "setting": "[16]", "result": "1.74 µM (active)"},
      {"measurement": "IC50", "setting": "[17]", "result": "> 29.9 µM (inactive)"},
      {"measurement": "EC50", "setting": "[18]", "result": "> 29.9 µM (inactive)"},
      {"measurement": "IC50", "setting": "[19]", "result": "8.12 µM (active)"}
    ]}
  ]
}
